This note sets out measurements from patent publication US9597364B2, “Treatment of withdrawal symptoms to aid in nicotine use cessation with Passiflora incarnata” (Campbell University, priority 2011, dated 2017).

Each structure is given as a SMILES string.

The test system of test [1] is Male Wistar rats. The test can be described thus: Effect of passion flower extract on nicotine sensitization (expression of motor sensitization, open field). Format: in vivo, rat. The conditions noted are these: 0.4 mg/kg s.c. nicotine days 1-4, challenge day 5. On the procedure:
To produce nicotine sensitization, rats were injected once/day for 4 consecutive days with either nicotine or vehicle. On day 5, known as the test day, rats were divided into four groups; half of those that had received vehicle on days 1-4 were pre-treated with passion flower extract (vehicle-passion flower group) and the other half with vehicle (vehicle-vehicle group). Analogously, half of the rats that received nicotine on days 1-4 received a pre-treatment of i.p. 1:1 water:glycerin (nicotine-vehicle group) on day 5, while the other half was given a pre-treatment of i.p. passion flower extract (nicotine-passionflower group). Each rat was monitored in the open field for 100 consecutive minutes, starting approximately 23 hours after the day 4 nicotine treatment. Before any injections on day 5, rats were placed in the activity chambers until an injection of passion flower extract or vehicle at 25 minutes, then monitored for another 25 minutes, at which point all rats received an injection of nicotine and were monitored for 50 additional minutes.

Test [2] relates to Male Wistar rats. To be noted: 0.4 mg/kg nicotine s.c. Here is the method:
Male Wistar rats (Charles River, Raleigh, N.C.) were provided with food and water ad libitum on a 12 hour light/dark cycle for 2-3 weeks before beginning any treatments. For all experiments, rats were approximately 45-65 days old and weighed between 148 and 195 g at the beginning of an experiment. Injections of nicotine or its vehicle (water) were subcutaneous (s.c.) administered at 0.4 mg/kg nicotine (Sigma Aldrich, St. Louis, Mo.) and 2 ml/kg. Injections of aqueous passion flower extract (Nature's Answer, Hauppage, N.Y.) or vehicle (1:1 glycerin:water) were intraperitoneal (i.p.) administered at 800 mg/kg and 0.16 ml/kg.
Drug-naive rats were placed individually in an open field for determination of spontaneous activity using the Limelight video tracking system (ActiMetrics, Wilmette, Ill.). Each rat was monitored in the open field for 30 minutes to determine the time course of habituation. Immediately afterward, each rat was injected with vehicle that was subsequently used for nicotine injection at 2 ml/kg and the rats were monitored for 50 minutes. Then each rat was removed from the chamber briefly to be injected s.c. with 0.4 mg/kg nicotine and monitored for another 90 minutes.
Mean velocity (in cm/s) over each 1 sec period was extracted using the LimeLight software and that data was used to calculate the average and SEM of the mean velocities for each 5 minute interval for each treatment group. Figures show the time at the end of the 5 minute period (e.g., 10 minutes is the 5-10 minute interval). In the preliminary assay of nicotine versus vehicle, there were 6 rats and in the chronic nicotine study there were 8-10 rats in each group.

As for `CN1CCCC1c1cccnc1` (stereo not shown) [nicotine], the “activity of nicotine-sensitized group (nicotine-vehicle) after challenge dose of nicotine, compared with vehicle-vehicle group” value in the test with Male Wistar rats [1] is given as “significantly greater activity than the vehicle-vehicle group”. In addition, the “time of peak activity after injection” value in the test with Male Wistar rats [2] is 5 to 15 min. The “activity compared with vehicle treatment” value in the test on Male Wistar rats [2] (intervals between 10 and 35 minutes except 15-20 minutes, 2-way ANOVA, Bonferroni p<0.05) is listed as “significantly different from vehicle treatment”. For the same compound, in the test on Male Wistar rats [2] (vehicle average 0.8±0.1 cm/s), the “spontaneous activity (velocity) during the 10-35 minute intervals, average” value was determined as 1.9±0.2 cm/s.
